Values after ≈ are worked out from the molar mass of the structure shown.
What was measured:
[1] = test system: Mycobacterium tuberculosis; test: Antimycobacterial activity against Mycobacterium tuberculosis H37Rv ATCC 25618 after 6 days by resazurin-based assay; type: functional; conditions: H37Rv ATCC 25618, 144 h
[2] = physchem; conditions: buffer, pH 7.4
[3] = test system: HepG2; test: Cytotoxicity against human HepG2 cells assessed as effect on mitochondrial membrane potential after 48 hrs by TMRM-staining based cell health assay; type: ADME; conditions: HepG2, 48 h
[4] = test system: HepG2; test: cells; type: ADME, cell-based; conditions: Homo sapiens, HepG2, 48 h
Description: Cytotoxicity against human HepG2 cells assessed as effect on nuclear morphology after 48 hrs by Hoechst 33342-staining based cell health assay

[5] = test system: HepG2; test: Cytotoxicity against human HepG2 cells assessed as effect on membrane permeability after 48 hrs by TOTO-3 iodide-staining based cell health assay; type: ADME; conditions: HepG2, 48 h
[6] = Intrinsic clearance in mouse liver microsomes at 0.5 uM preincubated with NADPH and measured up to 30 mins by LC-MS/MS analysis; type: ADME, microsome
[7] = Intrinsic clearance in human liver microsomes at 0.5 uM preincubated with NADPH and measured up to 30 mins by LC-MS/MS analysis; type: ADME, microsome
[8] = AUC in C57BL/6 mouse at 45 mg/kg, po via gavage by LC-MS/MS analysis; type: ADME, organism-based; conditions: in vivo
[9] = Half life in C57BL/6 mouse at 4.5 mg/kg, iv by LC-MS/MS analysis; type: ADME, organism-based; conditions: in vivo
[10] = Oral bioavailability in C57BL/6 mouse at 45 mg/kg via gavage by LC-MS/MS analysis; type: ADME, organism-based; conditions: in vivo
[11] = Clearance in C57BL/6 mouse at 4.5 mg/kg, iv by LC-MS/MS analysis; type: ADME, organism-based; conditions: in vivo
[12] = Cmax in C57BL/6 mouse at 45 mg/kg, po via gavage by LC-MS/MS analysis; type: ADME, organism-based; parameters: dose 45 mg/kg, route oral; conditions: in vivo
[13] = Volume of distribution at steady state in C57BL/6 mouse at 4.5 mg/kg, iv by LC-MS/MS analysis; type: ADME, organism-based; conditions: in vivo, read-out: Vdss

Compound	MIC90 [1] [µM]	CLH [6] [mL/min/g]	CLH [7] [mL/min/g]	further results
Cc1cc(CN2CCC3(CC2)OCCc2sccc23)c(C)n1-c1ccc(F)cc1	3 (≈ 1.23 µg/mL)	–	–	–
CN1CCCC2(CCN(Cc3ccc(Oc4ccc(OC(F)(F)F)cc4)cc3)CC2)C1	2.5 (≈ 1.09 µg/mL)	–	–	solubility kinetic at 1 h [2]: 205 µM (≈ 89.1 µg/mL); IC50 [3]: 12.2 µM; IC50 [4]: 6.9 µM; IC50 [5]: 8 µM
CC(C)(C)c1ccc(CN2CCC3(CC2)OCCCCO3)cc1	5 (≈ 1.59 µg/mL)	27	4.1	solubility kinetic at 1 h [2]: 194 µM (≈ 61.6 µg/mL); IC50 [3]: 170 µM; IC50 [4]: 166 µM; IC50 [5]: > 200 µM
CC(c1ccc(C(F)(F)F)cc1)N1CCC2(CC1)OCCc1sccc12 (stereo unspecified)	0.63 (≈ 0.24 µg/mL)	18.1	4.6	–
c1ccc2c3c([nH]c2c1)C1(CCN(Cc2ccc4c(c2)OCCO4)CC1)OCC3	93 (≈ 36.3 µg/mL)	–	–	–
CN1C(=O)C=CCC12CCN(Cc1ccc(Oc3ccc(OC(F)(F)F)cc3)cc1)CC2	> 5	–	–	solubility kinetic at 1 h [2]: 87 µM (≈ 38.8 µg/mL); IC50 [3]: 36.3 µM; IC50 [4]: 39.4 µM; IC50 [5]: 29.2 µM
c1cc2c(s1)CCOC21CCN(Cc2ccc3c(c2)OCCO3)C1 (stereo unspecified)	> 5	–	–	–
c1cc2c(s1)CCOC2CCNCc1ccc2c(c1)OCCO2 (stereo unspecified)	> 5	–	–	–
Cn1cc(CN2CCC3(CC2)OCCc2sccc23)c2ccccc21	0.63 (≈ 0.222 µg/mL)	> 30	4.5	–
c1ccc2c(c1)CCOC21CCN(Cc2ccc3c(c2)OCCO3)CC1	0.94 (≈ 0.33 µg/mL)	–	–	–
c1cc2c(s1)CCOC21CCN(Cc2ccc3c(c2)CCCC3)CC1	0.02 (≈ 0.00707 µg/mL)	> 30	22.6	–
c1ccc2c(CN3CCC4(CC3)OCCc3sccc34)c[nH]c2c1	0.94 (≈ 0.318 µg/mL)	7	3.1	–
Cc1ccc(CN2CCC3(CC2)OCCc2sccc23)cc1C	0.08 (≈ 0.0262 µg/mL)	> 30	18.9	–
CC(C)(C)c1ccc(CN2CCC3(CC2)OCCCO3)cc1	2.5 (≈ 0.759 µg/mL)	13.5	1.4	solubility kinetic at 1 h [2]: 374 µM (≈ 113 µg/mL); IC50 [3]: > 200 µM; IC50 [4]: > 200 µM; IC50 [5]: > 200 µM
Cc1ccc(CN2CCC3(CC2)OCCc2sccc23)[nH]1	> 5	28.7	4.1	–
c1ccc2oc(CN3CCC4(CC3)OCCc3sccc34)cc2c1	2.7 (≈ 0.917 µg/mL)	–	–	–
FS(F)(F)(F)(F)c1ccc(CN2CCC3(CC2)OCCc2sccc23)cc1	0.14 (≈ 0.0596 µg/mL)	18.2	3	–
Cc1ccccc1CN1CCC2(CC1)OCCc1sccc12	> 5	–	–	–
COc1ccc(-n2c(C)cc(CN3CCC4(CC3)OCCc3sccc34)c2C)cc1	3 (≈ 1.27 µg/mL)	–	–	–
FC(F)(F)Oc1ccc(Oc2ccc(CN3CCC4(CCCCC4)CC3)cc2)cc1	0.1 (≈ 0.0419 µg/mL)	2.8	0.5	solubility kinetic at 1 h [2]: < 1 µM; IC50 [3]: 21.8 µM; IC50 [4]: 25.9 µM; IC50 [5]: 28.3 µM
Brc1ccc(Nc2ccc(CN3CCC4(CC3)OCCc3sccc34)cc2)cc1	0.2 (≈ 0.0939 µg/mL)	0.9	1.5	AUC [8]: 17900 ng·h/mL; half-life [9]: 7.3 h; bioavailability [10]: 84.6%; clearance [11]: 19.8 mL/min/kg; Cmax [12]: 1020 ng/mL; Vd [13]: 12 L/kg
FC(F)(F)Oc1ccc(Oc2ccc(CN3CCC4(CCCCO4)CC3)cc2)cc1	0.31 (≈ 0.131 µg/mL)	1.2	1.7	solubility kinetic at 1 h [2]: < 1 µM; IC50 [3]: 46.3 µM; IC50 [4]: 38.7 µM; IC50 [5]: 43.7 µM
Cc1cc(CN2CCC3(CC2)OCCc2sccc23)c(C)n1-c1cccnc1	14 (≈ 5.51 µg/mL)	–	–	–
O=S(=O)(c1ccc2c(c1)OCCO2)N1CCC2(CC1)OCCc1sccc12	> 10	–	–	–
Cc1ccc(CN2CCC3(CC2)OCCc2sccc23)cc1	0.2 (≈ 0.0627 µg/mL)	> 30	22.5	–

From ChEMBL document CHEMBL4257587 (J Med Chem, 2018)
